In patent US12673050B2, “Compositions and their use for the treatment of A1-antitrypsin deficiency” (Centessa Pharmaceuticals (UK) Limited, priority 2021, dated 2026):

Target: human Z A1AT (Homo sapiens, UniProt P01009, E366K)
Experiment: Circulating human Z A1AT levels in huZ mice
Format: in vivo, mouse
Design: from tissue; host or cells: huZ transgenic mice (line Z11.03, C57Bl/6); expressed in liver, measured in plasma
Settings: huZ mice, 5, 15 or 50 mg/kg twice a day by oral gavage for 14 days, plasma days 12-14
Source text: The huZ mouse (also referred to as the PiZZ mouse) is a transgenic mouse strain that contains multiple copies of the Z variant of the human A1AT gene, developed by two separate groups (Dycaico et al (Science (1988) 242:1409-12) and Carlson et al (J. Clin Invest (1989) 83:1183-90)). HuZ mice are on a C57Bl/6 background and express the human Z A1AT protein in liver tissue. The mice used in this study are from the progeny of Carlson and colleagues (transgenic line Z11.03). […]
HuZ mice (n=4/group: male or female) with basal human A1AT plasma levels of between 200-600 μg/ml were treated with either vehicle or (S)-1-((2-(trifluoromethyl)phenyl)sulfonyl)piperidine-3-carboxylic acid at 5, 15 or 50 mg/kg twice a day by oral gavage for 14 consecutive days. […] Human A1AT levels in mouse plasma samples were measured by ELISA (Human Serpin A1/α1 antitrypsin duo set ELISA, R& D Systems, DY1268) per manufacturer's instructions.
Briefly, a 96 well plate was coated with human A1AT capture antibody overnight at room temperature (1:180 dilution from stock, 100 μl final volume/well). […] After which, 50 μl stop solution (2M H2SO4) was added and optical density (OD) of each well was read at 450 nm with 570 nm blank subtracted from each well using a microplate reader. […]

human Z A1AT, sequence (P01009 25-418 E366K): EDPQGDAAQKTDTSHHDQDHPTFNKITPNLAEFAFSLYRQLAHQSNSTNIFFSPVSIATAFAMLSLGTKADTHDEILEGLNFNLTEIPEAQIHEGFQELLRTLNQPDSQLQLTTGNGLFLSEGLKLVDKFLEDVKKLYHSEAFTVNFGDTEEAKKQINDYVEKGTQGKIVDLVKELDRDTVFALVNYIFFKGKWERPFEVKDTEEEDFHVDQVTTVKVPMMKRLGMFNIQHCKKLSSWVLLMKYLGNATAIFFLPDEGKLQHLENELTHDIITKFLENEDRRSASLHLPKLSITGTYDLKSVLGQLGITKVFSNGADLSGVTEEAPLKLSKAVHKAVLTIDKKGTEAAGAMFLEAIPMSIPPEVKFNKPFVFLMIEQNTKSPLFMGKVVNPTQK

With `O=C(O)[C@H]1CCCN(S(=O)(=O)c2ccccc2C(F)(F)F)C1` [(S)-1-((2-(Trifluoromethyl)phenyl)sulfonyl)piperidine-3-carboxylic acid] the “circulating human Z A1AT compared to baseline levels” value was “stimulates secretion of human Z A1AT compared to baseline levels in huZ mice in a dose dependent manner”.
